Laboratory results as given in US6613718B2, “Aryl ether derivatives and processes for their preparation and herbicidal and desiccant compositions containing them” (Ishihara Sangyo Kaisha, Ltd., priority 2001, dated 2003).

Assays:
Format in all cases: in vivo
Conditions in all cases: 14 days after application
[1] = test system: barnyardgrass (Echinochloa crus-galli, ECHCG); assay: Pre-emerge greenhouse herbicide activity screening, phytotoxicity rating
In short: (§1)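 Pre-emerge: seeds sown 1 day before spray; acetone solutions, 15–1000 g ai/ha, track sprayer; soil watered after application, then bottom-watered. Post-emerge: plants at 2-3 leaf stage (sown 8-21 days prior), 0.25% v/v non-ionic surfactant added, bottom-watered only. Rated 0-100 at 14 DAA.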

[2] = test system: common ragweed (Ambrosia artemisiifolia L., AMBEL); assay: as above
In short: as §1

[3] = test system: green foxtail (Setaria viridis, SETVI); assay: as above
In short: as §1

[4] = test system: ivyleaf morningglory (Ipomoea hederacea, IPOHE); assay: as above
In short: as §1

[5] = test system: johnsongrass (Sorghum halepense, SORHA); assay: as above
In short: as §1

[6] = test system: lambsquarters (Chenopodium album, CHEAL); assay: as above
In short: as §1

[7] = test system: large crabgrass (Digitaria sanguinalis, DIGSA); assay: as above
In short: as §1

[8] = test system: redroot pigweed (Amaranthus retroflexus, AMARE); assay: as above
In short: as §1

[9] = test system: sicklepod (Cassia obtusifolia, CASOB); assay: as above
In short: as §1

[10] = test system: velvetleaf (Abutilon theophrasti, ABUTH); assay: as above
In short: as §1

[11] = test system: field corn (Zea mays L., var. Dekalb 535, CORN); assay: Pre-emerge greenhouse screening, crop safety (phytotoxicity rating)
In short: as §1

[12] = test system: soybean (Glycine max L., var. Pella 86, SOY); assay: as above
In short: as §1

[13] = test system: upland rice (Oryza sp., var.Tebonnet, RICE); assay: as above
In short: as §1

[14] = test system: barnyardgrass (Echinochloa crus-galli, ECHCG); assay: Post-emerge greenhouse herbicide activity screening, phytotoxicity rating
In short: as §1

[15] = test system: common ragweed (Ambrosia artemisiifolia L., AMBEL); assay: as above
In short: as §1

[16] = test system: green foxtail (Setaria viridis, SETVI); assay: as above
In short: as §1

[17] = test system: ivyleaf morningglory (Ipomoea hederacea, IPOHE); assay: as above
In short: as §1

[18] = test system: johnsongrass (Sorghum halepense, SORHA); assay: as above
In short: as §1

[19] = test system: lambsquarters (Chenopodium album, CHEAL); assay: as above
In short: as §1

[20] = test system: large crabgrass (Digitaria sanguinalis, DIGSA); assay: as above
In short: as §1

[21] = test system: redroot pigweed (Amaranthus retroflexus, AMARE); assay: as above
In short: as §1

[22] = test system: sicklepod (Cassia obtusifolia, CASOB); assay: as above
In short: as §1

[23] = test system: velvetleaf (Abutilon theophrasti, ABUTH); assay: as above
In short: as §1

[24] = test system: field corn (Zea mays L., var. Dekalb 535, CORN); assay: Post-emerge greenhouse screening, crop safety / corn selectivity (phytotoxicity rating)
In short: as §1

[25] = test system: soybean (Glycine max L., var. Pella 86, SOY); assay: Post-emerge greenhouse screening, crop safety (phytotoxicity rating)
In short: as §1

[26] = test system: upland rice (Oryza sp., var.Tebonnet, RICE); assay: as above
In short: as §1

Structure (SMILES): Fc1cc(Cl)c(Oc2ncccn2)cc1-c1nn2c(c1Cl)CCCC2 [Compound 6-1, 3-Chloro-2-[4-chloro-2-fluoro-5-(2-pyrimidinyloxy)phenyl]-4,5,6,7-tetrahydro-pyrazolo[1,5-a]pyridine]
- ECHCG phytotoxicity rating (0-100 scale) ([1]; 125 g ai/ha): 99
- ECHCG phytotoxicity rating (0-100 scale) ([1]; 250 g ai/ha): 100
- AMBEL phytotoxicity rating (0-100 scale) ([2]; 125 g ai/ha): 100
- AMBEL phytotoxicity rating (0-100 scale) ([2]; 250 g ai/ha): 100
- SETVI phytotoxicity rating (0-100 scale) ([3]; 125 g ai/ha): 100
- SETVI phytotoxicity rating (0-100 scale) ([3]; 250 g ai/ha): 100
- IPOHE phytotoxicity rating (0-100 scale) ([4]; 125 g ai/ha): 99
- IPOHE phytotoxicity rating (0-100 scale) ([4]; 250 g ai/ha): 100
- SORHA phytotoxicity rating (0-100 scale) ([5]; 125 g ai/ha): 100
- SORHA phytotoxicity rating (0-100 scale) ([5]; 250 g ai/ha): 100
- CHEAL phytotoxicity rating (0-100 scale) ([6]; 125 g ai/ha): 100
- CHEAL phytotoxicity rating (0-100 scale) ([6]; 250 g ai/ha): 100
- DIGSA phytotoxicity rating (0-100 scale) ([7]; 125 g ai/ha): 100
- DIGSA phytotoxicity rating (0-100 scale) ([7]; 250 g ai/ha): 100
- AMARE phytotoxicity rating (0-100 scale) ([8]; 125 g ai/ha): 100
- AMARE phytotoxicity rating (0-100 scale) ([8]; 250 g ai/ha): 100
- CASOB phytotoxicity rating (0-100 scale) ([9]; 125 g ai/ha): 100
- CASOB phytotoxicity rating (0-100 scale) ([9]; 250 g ai/ha): 100
- ABUTH phytotoxicity rating (0-100 scale) ([10]; 125 g ai/ha): 100
- ABUTH phytotoxicity rating (0-100 scale) ([10]; 250 g ai/ha): 100
- CORN crop damage, phytotoxicity rating (0-100 scale) ([11]; 125 g ai/ha): 40
- CORN crop damage, phytotoxicity rating (0-100 scale) ([11]; 250 g ai/ha): 50
- SOY crop damage, phytotoxicity rating (0-100 scale) ([12]; 125 g ai/ha): 25
- SOY crop damage, phytotoxicity rating (0-100 scale) ([12]; 250 g ai/ha): 60
- RICE crop damage, phytotoxicity rating (0-100 scale) ([13]; 125 g ai/ha): 85
- RICE crop damage, phytotoxicity rating (0-100 scale) ([13]; 250 g ai/ha): 95
- ECHCG phytotoxicity rating (0-100 scale) ([14]; 125 g ai/ha): 90
- ECHCG phytotoxicity rating (0-100 scale) ([14]; 250 g ai/ha): 100
- AMBEL phytotoxicity rating (0-100 scale) ([15]; 125 g ai/ha): 85
- AMBEL phytotoxicity rating (0-100 scale) ([15]; 250 g ai/ha): 90
- SETVI phytotoxicity rating (0-100 scale) ([16]; 125 g ai/ha): 100
- SETVI phytotoxicity rating (0-100 scale) ([16]; 250 g ai/ha): 100
- IPOHE phytotoxicity rating (0-100 scale) ([17]; 125 g ai/ha): 100
- IPOHE phytotoxicity rating (0-100 scale) ([17]; 250 g ai/ha): 100
- SORHA phytotoxicity rating (0-100 scale) ([18]; 125 g ai/ha): 75
- SORHA phytotoxicity rating (0-100 scale) ([18]; 250 g ai/ha): 95
- CHEAL phytotoxicity rating (0-100 scale) ([19]; 125 g ai/ha): 100
- CHEAL phytotoxicity rating (0-100 scale) ([19]; 250 g ai/ha): 100
- DIGSA phytotoxicity rating (0-100 scale) ([20]; 125 g ai/ha): 90
- DIGSA phytotoxicity rating (0-100 scale) ([20]; 250 g ai/ha): 98
- AMARE phytotoxicity rating (0-100 scale) ([21]; 125 g ai/ha): 100
- AMARE phytotoxicity rating (0-100 scale) ([21]; 250 g ai/ha): 100
- CASOB phytotoxicity rating (0-100 scale) ([22]; 125 g ai/ha): 100
- CASOB phytotoxicity rating (0-100 scale) ([22]; 250 g ai/ha): 100
- ABUTH phytotoxicity rating (0-100 scale) ([23]; 125 g ai/ha): 100
- ABUTH phytotoxicity rating (0-100 scale) ([23]; 250 g ai/ha): 100
- CORN crop damage, phytotoxicity rating (0-100 scale) ([24]; 125 g ai/ha): 10
- CORN crop damage, phytotoxicity rating (0-100 scale) ([24]; 250 g ai/ha): 20
- SOY crop damage, phytotoxicity rating (0-100 scale) ([25]; 125 g ai/ha): 95
- SOY crop damage, phytotoxicity rating (0-100 scale) ([25]; 250 g ai/ha): 100
- RICE crop damage, phytotoxicity rating (0-100 scale) ([26]; 125 g ai/ha): 90
- RICE crop damage, phytotoxicity rating (0-100 scale) ([26]; 250 g ai/ha): 95
